This assay concerns NOx concentration in blood. The note with it: male SD rats, blood over 4 hours after last administration, FIG. 1.

From patent US12465584B2, “Agent for elevating nitric oxide concentration” (KYOWA HAKKO BIO CO., LTD., priority 2013, dated 2025) come the findings set out here.

Read-outs that look alike come from different tables or passages of the source.

For the molecule `N[C@@H](CCC(=O)N[C@@H](CS)C(=O)NCC(=O)O)C(=O)O` [glutathione, γ-L-Glu-L-Cys-Gly], the “amount of increase in the NOx concentration in blood plasma from the baseline” value runs as follows: (25 mg/kg/day reduced glutathione orally once a day for three days, compared to control group) “same tendency”; (50 mg/kg/day reduced glutathione orally once a day for three days, compared to control group (P<0.05)) “significantly increased”.
